Results on one molecule are retold here after patent US11793197B2, “Use of an amphidinol for its fungicidal and/or bactericidal activity on fungi, oomycetes and/or pathogenic bacteria of plants and crop seeds” (Immunrise […], priority 2017, dated 2023).

Molecules are shown by their SMILES.

In this assay the test system is F. graminearum spores. Format: cell-based, Fusarium graminearum.

Take `C=C/C=C/CC/C=C/C=C/C=C/CC/C=C/[C@H](O)[C@H](O)[C@@H]1O[C@@H]([C@H](O)[C@H](O)C(=C)CC[C@@H](O)[C@H]2C[C@@H](O)[C@@H](O)[C@H]([C@@H](O)[C@H](O)/C=C(\C)CCC(O)CC(O)C(O)C(C)CC(O)C(O)CC(C)CCC(O)CC(=O)CC(O)CCCC(O)CCCCC(O)CO)O2)C[C@@H](O)[C@H]1O` (stereo partly shown) [amphidinol 18]: the “antifungal activity against F. graminearum” value is on record as “has antifungal activity”.
